The numbers were not newly measured in PubChem BioAssay AID1259409 (Chemical Carcinogenesis Research Information System (CCRIS), 2018), which cites them from elsewhere.

The series deals with rodent chemically induced tumor inhibition, incidence and multiplicity. The series can be described thus: CCRIS tumor inhibitor studies.

The structures appear in SMILES notation.

For the molecule `O=C1O[C@H]([C@@H](O)CO)C(O)=C1O`, the “tumour outcome (control, treated, inhibition, significance)” value is 85%, 50%, 41%, not calculated (Carcinogen: 7,12-DIMETHYLBENZ[A]ANTHRACENE, 57-97-6, Dose [Inhibitor]: 0, 5000 PPM IN DRINKING WATER FOR 5 MO (STUDY DURATION: 5 MO), Route [Inhibitor]: ORAL, Species: RAT, Strain/Sex: SWISS/FEMALE, Target Tissue: Type of Lesion: MAMMARY GLAND: CRIBRIFORM CARCINOMA, Dose [Carcinogen]: 10 MG ONCE, Promoter: NONE USED); 43%, 48%, -12%, not significant (Carcinogen: 7,12-DIMETHYLBENZ[A]ANTHRACENE, 57-97-6, Dose [Inhibitor]: 0.2% IN 0.25 ML OF 20:80 WATER-ACETONE DAILY FOR 20 D BEGINNING 1 D POST CARCINOGEN TREATMENT (STUDY DURATION: 19 WK), Route [Inhibitor]: DERMAL, Species: MOUSE, Strain/Sex: ICR/FEMALE, Target Tissue: Type of Lesion: SKIN: PAPILLOMA, Dose [Carcinogen]: 0.125 MG IN 0.25 ML ACETONE ONCE, Promoter: CROTON OIL, 8001-28-3); 82%, 56%, 32%, not calculated (Carcinogen: 7,12-DIMETHYLBENZ[A]ANTHRACENE, 57-97-6, Dose [Inhibitor]: 1000 UG APPLIED ONCE 5 MIN PRIOR TO CARCINOGEN DOSE (STUDY DURATION: 28 WK), Route [Inhibitor]: DERMAL, Species: MOUSE, Strain/Sex: CD-1/FEMALE, Target Tissue: Type of Lesion: SKIN: PAPILLOMA, Dose [Carcinogen]: 2.56 UG ONCE, Promoter: 12-O-TETRADECANOYLPHORBOL-13-ACETATE, 16561-29-8); 16/23 (70%), 9/19 (47%), 33%, not significant (Carcinogen: 17BETA-ESTRADIOL, 50-28-2, Dose [Inhibitor]: 1% (W/V) IN REVERSED OSMOSIS DEIONIZED DRINKING WATER FOR 103 D STARTING 93 D AFTER START OF STUDY (STUDY DURATION: 196, Route [Inhibitor]: ORAL, Species: HAMSTER, Strain/Sex: SYRIAN/MALE, Target Tissue: Type of Lesion: KIDNEY: CARCINOMA, Dose [Carcinogen]: 90% OF 31 MG PELLET AT START OF STUDY AND 90% OF 45 MG PELLET 3 MO LATER, Promoter: NONE USED); 16/23 (70%), 15/17 (88%), -26%, not significant (Carcinogen: 17BETA-ESTRADIOL, 50-28-2, Dose [Inhibitor]: 1% (W/V) IN REVERSED OSMOSIS DEIONIZED DRINKING WATER FOR FIRST 92 D OF STUDY (STUDY DURATION: 196 D), Route [Inhibitor]: ORAL, Species: HAMSTER, Strain/Sex: SYRIAN/MALE, Target Tissue: Type of Lesion: KIDNEY: CARCINOMA, Dose [Carcinogen]: 90% OF 31 MG PELLET AT START OF STUDY AND 90% OF 45 MG PELLET 3 MO LATER, Promoter: NONE USED); 16/23 (70%), 10/33 (30%), 57%, p<0.005 (Carcinogen: 17BETA-ESTRADIOL, 50-28-2, Dose [Inhibitor]: 1% IN REVERSED OSMOSIS DEIONIZED DRINKING WATER FOR DURATION OF STUDY (STUDY DURATION: 196 D), Route [Inhibitor]: ORAL, Species: HAMSTER, Strain/Sex: SYRIAN/MALE, Target Tissue: Type of Lesion: KIDNEY: CARCINOMA, Dose [Carcinogen]: 90% OF 31 MG PELLET AT START OF STUDY AND 90% OF 45 MG PELLET 3 MO LATER, Promoter: NONE USED). Further, the “tumour outcome (control, treated, inhibition, significance)” value (Carcinogen: AMINOPYRENE, 1606-67-3, SODIUM NITRITE, 7632-00-0, Carcinogen: AMINOPYRENE, 1606-67-3, SODIUM NITRITE, 7632-00-0, Dose [Inhibitor]: 7 G/KG OF DIET FOR DURATION OF STUDY (STUDY DURATION: 40 WK), Route [Inhibitor]: ORAL, Species: RAT, Strain/Sex: SPRAGUE-DAWLEY/MALE, Target Tissue: Type of Lesion: LIVER: TUMORS, Dose [Carcinogen]: AMINOPYRENE 1 G/L AND SODIUM NITRITE 1 G/L IN DRINKING WATER 5 D/WK FOR 40 WK, Promoter: NONE USED) was 12/37 (32%), 0/39 (0%), 100%, not calculated; the “tumour outcome (control, treated, inhibition, significance)” value (Carcinogen: AMINOPYRENE, 1606-67-3, SODIUM NITRITE, 7632-00-0, Carcinogen: AMINOPYRENE, 1606-67-3, SODIUM NITRITE, 7632-00-0, Dose [Inhibitor]: 7 G/KG OF DIET FOR DURATION OF STUDY (STUDY DURATION: 40 WK), Route [Inhibitor]: ORAL, Species: RAT, Strain/Sex: SPRAGUE-DAWLEY/MALE, Target Tissue: Type of Lesion: LUNG: TUMORS, Dose [Carcinogen]: AMINOPYRENE 1 G/L AND SODIUM NITRITE 1 G/L IN DRINKING WATER 5 D/WK FOR 40 WK, Promoter: NONE USED) is given as 25/37 (68%), 13/39 (33%), 51%, not calculated; the “tumour outcome (control, treated, inhibition, significance)” value (Carcinogen: AMINOPYRENE, 1606-67-3, SODIUM NITRITE, 7632-00-0, Carcinogen: AMINOPYRENE, 1606-67-3, SODIUM NITRITE, 7632-00-0, Dose [Inhibitor]: 7 G/KG OF DIET FOR THE DURATION OF STUDY (STUDY DURATION: 40 WK), Route [Inhibitor]: ORAL, Species: RAT, Strain/Sex: SPRAGUE-DAWLEY/MALE, Target Tissue: Type of Lesion: KIDNEY: TUMORS, Dose [Carcinogen]: AMINOPYRINE 1 G/L AND SODIUM NITRITE 1 G/L IN DRINKING WATER 5 D/WK FOR 40 WK, Promoter: NONE USED) was 10/37 (27%), 7/39 (18%), 33%, not calculated; the “tumour outcome (control, treated, inhibition, significance)” value (Carcinogen: BENZO[A]PYRENE, 50-32-8, Dose [Inhibitor]: 0, 10 MG/ML IN DRINKING WATER FOR 6 WK (STUDY DURATION: 9 WK), Route [Inhibitor]: ORAL, Species: MOUSE, Strain/Sex: NIGP(S)/FEMALE, Target Tissue: Type of Lesion: LUNG: ADENOMA, Dose [Carcinogen]: 0.5 MG INJECTED IN THE SCAPULAR REGION OF NEWBORN MICE ONCE, Promoter: NONE USED) is 56%, 35%, 38%, not calculated; the “tumour outcome (control, treated, inhibition, significance)” value (Carcinogen: BENZO[A]PYRENE, 50-32-8, Dose [Inhibitor]: 0, 10 MG/ML IN DRINKING WATER FOR 6 WK (STUDY DURATION: 9 WK), Route [Inhibitor]: ORAL, Species: MOUSE, Strain/Sex: NIGP(S)/MALE, Target Tissue: Type of Lesion: LUNG: ADENOMA, Dose [Carcinogen]: 0.5 MG INJECTED IN THE SCAPULAR REGION OF NEWBORN MICE ONCE, Promoter: NONE USED) is 38%, 24%, 37%, not calculated; the “tumour outcome (control, treated, inhibition, significance)” value (Carcinogen: BENZO[A]PYRENE, 50-32-8, Dose [Inhibitor]: 0.068 MMOL/G IN DIET FOR 5 WK BEGINNING 1 WK PRIOR TO CARCINOGEN DOSE (STUDY DURATION: 21 WK), Route [Inhibitor]: ORAL, Species: MOUSE, Strain/Sex: ICR/HA/FEMALE, Target Tissue: Type of Lesion: FORESTOMACH: TUMOR, Dose [Carcinogen]: 1 MG IN 0.2 ML CORN OIL 2/WK FOR 4 WK, Promoter: NONE USED) is listed as 100%, 95%, 5%, not significant. Besides, the “tumour outcome (control, treated, inhibition, significance)” value (Carcinogen: DIETHYLNITROSAMINE, 55-18-5, Dose [Inhibitor]: 0, 3 G/L IN DRINKING WATER BEGINNING 1 D PRIOR TO FIRST CARCINOGEN DOSE AND CONTINUING TO 2 D POST LAST CARCINOGEN DOSE, Route [Inhibitor]: ORAL, Species: RAT, Strain/Sex: BD6/FEMALE, Target Tissue: Type of Lesion: ESOPHAGUS: TUMOR, Dose [Carcinogen]: 80 MG/KG BW 1/WK FOR 8 WK, Promoter: NONE USED) is 31%, 28%, 10%, not significant.
